Results from US11076600B2, “Mixtures of cis-jasmone and bacillus amyloliquefaciens” (BASF SE, priority 2015, dated 2021).

How the values were obtained:
Type in all cases: in vivo
[1] = tested on: root knot nematodes (Meloidogyne incognita/acrita); assay: Field trial: yield improvement against root knot nematode in corn after seed treatment; settings: corn (NG6247MQKZ, NF5334MQKZ, NG4549MQKZ) seed treatment; per 100 kg of seeds: MBI600 1*10^11 CFU, cis-jasmone 0.2 g ai; harvest yield (bushels/acre) converted into % of untreated control; 4-6 replicates
Description: (§1) To establish, whether a synergistic effect is present, the expected efficacy has to be calculated and compared to the observed efficacy of the mixture according to the invention.
(§2) Synergism can be described as an interaction where the combined effect of two or more compounds is greater than the sum of the individual effects of each of the compounds. The presence of a synergistic effect in terms of percent control, between two mixing partners (X and Y) can be calculated using the Colby equation (Colby, S. R., 1967, Calculating Synergistic and Antagonistic Responses in Herbicide Combinations, Weeds, 15, 20-22):
(§3) X=Observed efficacy (in % of Untreated Control) of compound 1
(§4) Y=Observed efficacy (in % of Untreated Control) of compound 2
(§5) E=Calculated (i.e. expected) efficacy (in % of Untreated Control)
(§6) When the observed efficacy (%) is greater than the calculated efficacy (E) according to Colby (%), then the combined effect is synergistic.
For evaluating control of root knot nematodes (Meloidogyne incognita/acrita) in corn, corn seeds (varieties NG6247MQKZ, NF5334MQKZ and NG4549MQKZ, respectively) were treated with cis-jasmone, MBI600 (Bacillus amyloliquefaciens ssp. plantarum MBI600), or a mixture thereof. […]

[2] = tested on: root knot nematodes (Meloidogyne incognita/acrita); assay: Field trial: yield improvement against root knot nematode in cotton after seed treatment; settings: cotton (PhytoGen PHY 499 WRF) seed treatment; per 100 kg of seed: MBI600 1*10^11 CFU, cis-jasmone 0.2 g ai; harvest yield (pounds/acre) converted into % of untreated control; 4 replicates
Description: as §1, §2, §3, §4, §5, §6
For evaluating control of root knot nematodes (Meloidogyne incognita/acrita) in cotton, cotton seeds (variety PhytoGen PHY 499 WRF) were treated with cis-jasmone, MBI600 (Bacillus amyloliquefaciens ssp. plantarum MBI600), or a mixture thereof.
(§7) Seeds were placed in a plastic cup and the compounds, or the mixture thereof, was dosed on the seeds with an application rate of 0.2 g of cis-jasmone per 100 kg of seeds, and 1*10^11 CFU of MBI600 per 100 kg of seeds. […]

[3] = tested on: soybean cyst nematodes (Heterodera glycines); assay: Field trial: yield improvement against soybean cyst nematode in soybean after seed treatment; settings: soybean (Dyna-Gro 39RY43) seed treatment; per 100 kg of seed: MBI600 1*10^11 CFU, cis-jasmone 0.2 g ai; harvest yield (bushels/acre) converted into % of untreated control; 4 replicates
Description: as §1, §2, §3, §4, §5, §6
For evaluating control of soybean cyst nematodes (Heterodera glycines) in soybean, soybean seeds (variety Dyna-Gro 39RY43) were treated with cis-jasmone, MB1600 (Bacillus amyloliquefaciens ssp. plantarum MB1600), or a mixture thereof.
as §7

CC/C=C\CC1=C(C)CCC1=O [Cis-jasmone]
Observed efficacy (%) [1]: 9.2%
Observed efficacy (%) [2]: 47.2%
Observed efficacy (%) [3]: 9%
